Among the data in US3983105A, “Penicillins” (Bayer Aktiengesellschaft, priority 1971, dated 1976) are MIC values, retold here.

What all share (format): cell-based
One test concerns Pseudomonas aeruginosa. Put plainly: MIC, test tube serial dilution, Pseudomonas aeruginosa.
The next test deals with Klebsiella-Aerobacter. Put plainly: MIC, test tube serial dilution, Klebsiella-Aerobacter.
In another test the test system is Escherichia coli. Put plainly: MIC, test tube serial dilution, Escherichia coli.
A further test relates to Proteus morganii. Put plainly: MIC, test tube serial dilution, Proteus morganii.
For the next test, the system named is Proteus vulgaris. Put plainly: MIC, test tube serial dilution, Proteus vulgaris. Particulars: strain 1017.
The next test concerns Streptococcus faecalis. Put plainly: MIC, test tube serial dilution, Streptococcus faecalis.
A further test relates to Staphylococcus aureus. Put plainly: MIC, test tube serial dilution, Staphylococcus aureus.
Where [1] appears, read: strain 1756 (BRL 1 756), 24 hours, 37°C.

`CN(C(=O)N[C@@H](C(=O)N[C@@H]1C(=O)N2[C@@H]1SC(C)(C)[C@@H]2C(=O)O)c1ccccc1)C(=O)N1CCCS1(=O)=O` [Example 29, Sodium D(-)-α-{3-[N-(1,1-dioxo-isothiazolidin-2-yl)-carbonyl]-3-methyl}-ureido-benzylpenicillin]: the MIC with Pseudomonas aeruginosa (strain Bonn, 24 hours, 37°C) is given as 16 U/ml; against Pseudomonas aeruginosa (strain Walter, 24 hours, 37°C), 16 U/ml; against Klebsiella-Aerobacter (strain 63, 24 hours, 37°C), 64 U/ml; against Klebsiella-Aerobacter (strain K 10, 24 hours, 37°C) it was 64 U/ml; against Escherichia coli (strain 183/58, 24 hours, 37°C), 32 U/ml; against Escherichia coli (strain A 261, 24 hours, 37°C) it was over 256 U/ml. In addition, the MIC worked out at 16 U/ml in the test on Escherichia coli (strain C 165, 24 hours, 37°C); 128 µg/mL against Proteus morganii (unit assumed); 64 U/ml in the test on Proteus vulgaris (24 hours, 37°C); 16 U/ml against Streptococcus faecalis (ATCC 9790, 24 hours, 37°C); 256 U/ml with Staphylococcus aureus (setting [1]).
`CC(=O)N1CCN(C(=O)NC(C(=O)N[C@@H]2C(=O)N3[C@@H]2SC(C)(C)[C@@H]3C(=O)O)c2cccs2)C1=O` (stereo partly shown) [Penicillin No. 9 (Table 3)]: the MIC is listed as 64 U/ml with Pseudomonas aeruginosa (Table 3, strain F 41); 64 U/ml with Pseudomonas aeruginosa (Table 3, strain Walter); 128 U/ml against Klebsiella-Aerobacter (Table 3, strain 63); 32 U/ml against Klebsiella-Aerobacter (Table 3, strain K 10); 2 U/ml in the test with Escherichia coli (Table 3, strain 14); 8 U/ml in the test on Escherichia coli (Table 3, strain 183/58). Also, the MIC was 512 U/ml against Escherichia coli (Table 3, strain A 261); 8 U/ml in the test on Escherichia coli (Table 3, strain C 165); 8 U/ml in the test on Proteus morganii (Table 3, strain 932); 8 U/ml in the test with Proteus vulgaris (Table 3); 64 U/ml in the test on Streptococcus faecalis (Table 3, ATCC 9790); 2 U/ml in the test on Staphylococcus aureus (Table 3, strain 133). The same compound had an MIC in the test on Staphylococcus aureus (Table 3, strain 1756E) of 64 U/ml.
In the case of `CCS(=O)(=O)N1CCN(C(=O)NC(C(=O)N[C@@H]2C(=O)N3[C@@H]2SC(C)(C)[C@@H]3C(=O)O)c2ccc(Cl)cc2)C1=O` (stereo partly drawn) [Penicillin No. 13 (Table 3), Sodium α-[(3-ethylsulphonyl-imidazolidin-2-on-1-yl)-carbonylamino]-p-chlorobenzylpenicillin], the MIC is 128 U/ml in the test on Pseudomonas aeruginosa (Table 3, strain F 41); 128 U/ml against Pseudomonas aeruginosa (Table 3, strain Walter); 64 U/ml in the test with Klebsiella-Aerobacter (Table 3, strain 63); 32 U/ml against Klebsiella-Aerobacter (Table 3, strain K 10); 4 U/ml against Escherichia coli (Table 3, strain 14); 4 U/ml against Escherichia coli (Table 3, strain 183/58). Besides, the MIC in the test on Escherichia coli (Table 3, strain A 261) is listed as over 256 U/ml; with Escherichia coli (Table 3, strain C 165), 8 U/ml; against Proteus morganii (Table 3, strain 932), 128 U/ml; with Proteus vulgaris (Table 3), 16 U/ml; in the test on Streptococcus faecalis (Table 3, ATCC 9790) it was 128 U/ml; in the test on Staphylococcus aureus (Table 3, strain 133), 4 U/ml. The compound further displayed an MIC in the test with Staphylococcus aureus (Table 3, strain 1756E) of 256 U/ml.
For `CC1(C)S[C@@H]2[C@H](NC(=O)C(NC(=O)N3CCN(S(C)(=O)=O)C3=O)c3ccc(Cl)cc3)C(=O)N2[C@H]1C(=O)O` (stereo partly drawn) [Penicillin No. 2 (Table 3), Sodium D,L-α-[(3-methylsulphonyl-imidazolidin-2-on-1-yl)-carbonylamino]-4-chlorobenzylpenicillin], the MIC in the test with Pseudomonas aeruginosa (Table 3, strain F 41) is 128 U/ml; in the test on Pseudomonas aeruginosa (Table 3, strain Walter) it was 64 U/ml; in the test with Klebsiella-Aerobacter (Table 3, strain 63), 128 U/ml; with Klebsiella-Aerobacter (Table 3, strain K 10) it was 32 U/ml; in the test with Escherichia coli (Table 3, strain 14), under 1 U/ml; against Escherichia coli (Table 3, strain 183/58), 4 U/ml. The MIC in the test on Escherichia coli (Table 3, strain A 261) was 256 U/ml; in the test with Escherichia coli (Table 3, strain C 165) it was 4 U/ml; against Proteus morganii (Table 3, strain 932), 8 U/ml; against Proteus vulgaris (Table 3), 8 U/ml; against Streptococcus faecalis (Table 3, ATCC 9790), 64 U/ml; with Staphylococcus aureus (Table 3, strain 133) it was under 1 U/ml. This compound showed an MIC in the test with Staphylococcus aureus (Table 3, strain 1756E) of 64 U/ml.
On to `CN(C)C(=O)N1CCN(C(=O)N[C@@H](C(=O)N[C@@H]2C(=O)N3[C@@H]2SC(C)(C)[C@@H]3C(=O)O)c2ccccc2)C1=O` [Example 6, Sodium D(-)-α-[(3-dimethylaminocarbonyl-imidazolidin-2-on-1-yl)-carbonylamino]-benzylpenicillin], for which the MIC is 32 U/ml in the test on Pseudomonas aeruginosa (strain Bonn, 24 hours, 37°C); 32 U/ml against Pseudomonas aeruginosa (strain Walter, 24 hours, 37°C); 32 U/ml against Klebsiella-Aerobacter (strain 63, 24 hours, 37°C); 16 U/ml in the test with Klebsiella-Aerobacter (strain K 10, 24 hours, 37°C); 4 U/ml in the test with Escherichia coli (strain 183/58, 24 hours, 37°C); over 256 U/ml in the test on Escherichia coli (strain A 261, 24 hours, 37°C). Besides, the MIC is reported as 64 U/ml in the test on Proteus morganii (strain 932, 24 hours, 37°C); 16 U/ml in the test with Proteus vulgaris (24 hours, 37°C); 32 U/ml with Streptococcus faecalis (ATCC 9790, 24 hours, 37°C); 64 U/ml with Staphylococcus aureus (setting [1]).
Consider `CC1(C)S[C@@H]2[C@H](NC(=O)[C@H](NC(=O)NC(=O)NS(C)(=O)=O)c3ccccc3)C(=O)N2[C@H]1C(=O)O` [Example 31, Sodium D(-)-α-(5 -mesyl-biureido)-benzylpenicillin], for which the MIC was 256 U/ml against Pseudomonas aeruginosa (strain Bonn, 24 hours, 37°C); 256 U/ml against Pseudomonas aeruginosa (strain Walter, 24 hours, 37°C); over 256 U/ml in the test on Klebsiella-Aerobacter (strain 63, 24 hours, 37°C); over 256 U/ml against Klebsiella-Aerobacter (strain K 10, 24 hours, 37°C); 128 U/ml against Escherichia coli (strain 183/58, 24 hours, 37°C); over 256 U/ml against Escherichia coli (strain A 261, 24 hours, 37°C). Also, the MIC was 64 U/ml in the test on Proteus morganii (strain 932, 24 hours, 37°C); over 256 U/ml against Proteus vulgaris (24 hours, 37°C); 32 µg/mL in the test on Streptococcus faecalis (unit assumed); 64 U/ml against Staphylococcus aureus (setting [1]).
Turning to `CC(=O)N1CCN(C(=O)NC(C(=O)N[C@@H]2C(=O)N3[C@@H]2SC(C)(C)[C@@H]3C(=O)O)c2c(Cl)cccc2Cl)C1=O` (stereo partly drawn) [Penicillin No. 10 (Table 3), Sodium D,L-α-[(3-acetyl-imidazolidin-2-on-1-yl)carbonylamino]-2,6-dichloro-benzylpenicillin], the MIC in the test on Pseudomonas aeruginosa (Table 3, strain F 41) is recorded as over 512 U/ml; in the test on Pseudomonas aeruginosa (Table 3, strain Walter), over 512 U/ml; in the test with Klebsiella-Aerobacter (Table 3, strain 63) it was over 512 U/ml; against Klebsiella-Aerobacter (Table 3, strain K 10) it was over 512 U/ml; in the test on Escherichia coli (Table 3, strain 14) it was 128 U/ml; in the test on Escherichia coli (Table 3, strain 183/58), 256 U/ml. In addition, the MIC against Escherichia coli (Table 3, strain A 261) was over 512 U/ml; against Escherichia coli (Table 3, strain C 165), 512 U/ml; against Proteus morganii (Table 3, strain 932), 256 U/ml; in the test with Proteus vulgaris (Table 3) it was 256 U/ml; against Streptococcus faecalis (Table 3, ATCC 9790), over 512 U/ml; in the test on Staphylococcus aureus (Table 3, strain 133) it was 16 U/ml. In the test with Staphylococcus aureus (Table 3, strain 1756E), the MIC came to 512 U/ml.
For `COC(=O)N1CCN(C(=O)NC(C(=O)N[C@@H]2C(=O)N3[C@@H]2SC(C)(C)[C@@H]3C(=O)O)c2cccs2)C1=O` (stereo partly drawn) [Penicillin No. 20 (Table 3), Sodium D,L-α-[(3-methoxycarbonyl-imidazolidin-2-on-1-yl)-carbonylamino]-α-thienyl(2)-methylpenicillin], the MIC was 64 U/ml with Pseudomonas aeruginosa (Table 3, strain F 41); 32 U/ml in the test with Pseudomonas aeruginosa (Table 3, strain Walter); 32 U/ml in the test on Klebsiella-Aerobacter (Table 3, strain 63); 32 U/ml with Klebsiella-Aerobacter (Table 3, strain K 10); 4 U/ml with Escherichia coli (Table 3, strain 14); 8 U/ml against Escherichia coli (Table 3, strain 183/58). The MIC is recorded as over 256 U/ml in the test with Escherichia coli (Table 3, strain A 261); 8 U/ml in the test on Escherichia coli (Table 3, strain C 165); 32 U/ml against Proteus morganii (Table 3, strain 932); 8 U/ml against Proteus vulgaris (Table 3); 16 U/ml against Streptococcus faecalis (Table 3, ATCC 9790); under 1 U/ml against Staphylococcus aureus (Table 3, strain 133). Further, in the test on Staphylococcus aureus (Table 3, strain 1756E), the MIC is 64 U/ml.
Regarding `CC(=O)N1CCN(C(=O)N[C@H](C(=O)N[C@@H]2C(=O)N3[C@@H]2SC(C)(C)[C@@H]3C(=O)O)c2ccccc2)C1=O` [Penicillin No. 6 (Table 3), Sodium L(+)-α-[(3-acetyl-imidazolidin-2-on-1-yl)-carbonylamino]-benzylpenicillin], the MIC in the test with Pseudomonas aeruginosa (Table 3, strain F 41) was found to be 256 U/ml; against Pseudomonas aeruginosa (Table 3, strain Walter) it was 128 U/ml; against Klebsiella-Aerobacter (Table 3, strain 63) it was 256 U/ml; in the test on Klebsiella-Aerobacter (Table 3, strain K 10), 128 U/ml; against Escherichia coli (Table 3, strain 14), 8 U/ml; with Escherichia coli (Table 3, strain 183/58), 16 U/ml. Also, the MIC is over 512 U/ml in the test on Escherichia coli (Table 3, strain A 261); 32 U/ml in the test with Escherichia coli (Table 3, strain C 165); 64 U/ml in the test with Proteus morganii (Table 3, strain 932); 32 U/ml against Proteus vulgaris (Table 3); 128 U/ml in the test with Streptococcus faecalis (Table 3, ATCC 9790); 2 U/ml in the test with Staphylococcus aureus (Table 3, strain 133). Besides, the MIC in the test on Staphylococcus aureus (Table 3, strain 1756E) is given as 128 U/ml.
